The source of these data is patent US9593121B2, “Indole substituted pyrrolopyrimidinyl inhibitors of Uba6” (Millennium Pharmaceuticals, Inc., priority 2012, dated 2017).

Structures can show the parent of a compound that is named as a salt.

The target in this assay is recombinant human his-UBA6 enzyme (Homo sapiens (Human), UniProt A0AVT1). Nature of the assay: UBA6 AlphaScreen Assay. The class given is biochemical. The settings on record: for inhibition at 0.123 µM: compound at 0.123 μM. As for the experimental part: UBA6 AlphaScreen® Assay. The UBA6 enzmatic reaction totals 20 μL and contains 50 mM HEPES (pH 7.5), 0.05% BSA, 0.02% Tween 20, 0.1 mM TCEP, 5 mM MgCl2, 2 μM ATP, 60 nM Flag-Ubiquitin, 20 nM Biotin-his-Use1, and 0.15 nM recombinant human his-UBA6 enzyme. The enzymatic reaction mixture, with and without compound inhibitor, is incubated at 24° C. for 90 minutes in a 384 well plate before termination with 10 μL of Stop/Detection buffer (50 mM HEPES (pH 7.5), 0.05% BSA, 0.02% Tween 20, 0.1 mM TCEP, 20 mM EDTA, 30 μg/ml anti-FLAG Acceptor beads (Perkin Elmer), and 6 μg/mL streptavidin donor beads (Perkin Elmer). After incubation for 2 hours at 24° C. in a dark room, quantification of the AlphaScreen signal is performed on the Pherastar™ (BMG).
Sequence of recombinant human his-UBA6 enzyme (A0AVT1 whole entry): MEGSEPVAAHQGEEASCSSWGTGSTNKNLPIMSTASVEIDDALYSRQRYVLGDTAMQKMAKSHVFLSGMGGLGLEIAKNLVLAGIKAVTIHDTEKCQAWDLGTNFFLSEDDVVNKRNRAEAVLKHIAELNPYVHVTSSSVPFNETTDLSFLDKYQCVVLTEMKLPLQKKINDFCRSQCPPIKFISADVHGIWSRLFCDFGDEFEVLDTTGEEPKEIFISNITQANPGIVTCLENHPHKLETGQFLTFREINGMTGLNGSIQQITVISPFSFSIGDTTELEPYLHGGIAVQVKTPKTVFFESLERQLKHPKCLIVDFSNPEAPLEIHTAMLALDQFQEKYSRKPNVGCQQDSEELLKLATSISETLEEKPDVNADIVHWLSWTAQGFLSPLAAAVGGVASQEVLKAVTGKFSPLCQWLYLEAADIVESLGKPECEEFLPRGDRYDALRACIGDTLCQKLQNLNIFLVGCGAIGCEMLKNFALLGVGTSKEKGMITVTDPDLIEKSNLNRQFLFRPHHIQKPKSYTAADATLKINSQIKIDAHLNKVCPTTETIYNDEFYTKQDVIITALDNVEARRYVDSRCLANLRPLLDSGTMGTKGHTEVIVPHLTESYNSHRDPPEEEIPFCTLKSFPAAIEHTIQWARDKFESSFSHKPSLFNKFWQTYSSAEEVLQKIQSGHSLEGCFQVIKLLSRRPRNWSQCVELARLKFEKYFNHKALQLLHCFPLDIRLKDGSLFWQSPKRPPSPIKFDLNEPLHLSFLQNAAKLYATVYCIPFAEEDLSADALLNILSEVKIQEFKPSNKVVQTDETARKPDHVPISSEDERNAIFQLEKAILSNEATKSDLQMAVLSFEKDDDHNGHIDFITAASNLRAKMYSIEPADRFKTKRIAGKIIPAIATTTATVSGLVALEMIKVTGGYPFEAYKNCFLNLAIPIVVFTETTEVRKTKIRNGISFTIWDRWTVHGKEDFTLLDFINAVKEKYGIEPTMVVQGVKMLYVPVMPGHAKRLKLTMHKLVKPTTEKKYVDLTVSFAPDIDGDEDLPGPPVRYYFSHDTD
Background: Alpha assays give light when donor and acceptor beads are brought close together.

For `NS(=O)(=O)OC[C@@H]1C[C@@H](n2ccc3c(-c4cc5ccccc5[nH]4)ncnc32)C[C@@H]1O` [Compound I-01, ((1S,2S,4R)-4-(4-(1H-indol-2-yl)-7H-pyrrolo[2,3-d]pyrimidin-7-yl)-2-hydroxycyclopentyl)methyl sulfamate HCl], the IC50 (commonly the point on the concentration scale where inhibition reaches its midpoint) was no more than 0.05 µM and the inhibition (as a rule, how much of the control response was suppressed) at 0.123 µM is 87%.

For the compound `Cn1c(-c2ncnc3c2ccn3[C@@H]2C[C@@H](COS(N)(=O)=O)[C@@H](O)C2)cc2ccccc21` [Compound I-02, {(1S,2S,4R)-2-hydroxy-4-[4-(1-methyl-1H-indol-2-yl)-7H-pyrrolo[2,3-d]pyrimidin-7-yl]cyclopentyl}methyl sulfamate HCl], the IC50 was in the range of 0.05 to 2 µM and the inhibition at 0.123 µM amounted to 5.9%.

As for `COc1ccc2[nH]c(-c3ncnc4c3ccn4[C@@H]3C[C@@H](COS(N)(=O)=O)[C@@H](O)C3)cc2c1` [Compound I-03, {(1S,2S,4R)-2-hydroxy-4-[4-(5-methoxy-1H-indol-2-yl)-7H-pyrrolo[2,3-d]pyrimidin-7-yl]cyclopentyl}methyl sulfamate], the half-inhibitory concentration (IC50) was no more than 0.05 µM and the inhibition at 0.123 µM was 93%.

Turning to `NS(=O)(=O)OC[C@@H]1C[C@@H](n2ccc3c(-c4cc5ccc(Cl)cc5[nH]4)ncnc32)C[C@@H]1O` [Compound I-04, {(1S,2S,4R)-4-[4-(6-chloro-1H-indol-2-yl)-7H-pyrrolo[2,3-d]pyrimidin-7-yl]-2-hydroxycyclopentyl}methyl sulfamate], the IC50 was no more than 0.05 µM and the inhibition at 0.123 µM is 91%.

Turning to `N#Cc1ccc2cc(-c3ncnc4c3ccn4[C@@H]3C[C@@H](COS(N)(=O)=O)[C@@H](O)C3)[nH]c2c1` [Compound I-05, {(1S,2S,4R)-4-[4-(6-cyano-1H-indol-2-yl)-7H-pyrrolo[2,3-d]pyrimidin-7-yl]-2-hydroxycyclopentyl}methyl sulfamate], the IC50 is no more than 0.05 µM and the inhibition at 0.123 µM amounted to 86%.

Take `Cc1ccc2cc(-c3ncnc4c3ccn4[C@@H]3C[C@@H](COS(N)(=O)=O)[C@@H](O)C3)[nH]c2c1` [Compound I-06, {(1S,2S,4R)-2-hydroxy-4-[4-(6-methyl-1H-indol-2-yl)-7H-pyrrolo[2,3-d]pyrimidin-7-yl]cyclopentyl}methyl sulfamate]: the IC50 was no more than 0.05 µM and the inhibition at 0.123 µM was determined as 88%.

For `COc1ccc2cc(-c3ncnc4c3ccn4[C@@H]3C[C@@H](COS(N)(=O)=O)[C@@H](O)C3)[nH]c2c1` [Compound I-07, {(1S,2S,4R)-2-hydroxy-4-[4-(6-methoxy-1H-indol-2-yl)-7H-pyrrolo[2,3-d]pyrimidin-7-yl]cyclopentyl}methyl sulfamate], the IC50 was no more than 0.05 µM and the inhibition at 0.123 µM was 90%.

On to `Cc1nc(-c2cc3ccccc3[nH]2)c2ccn([C@@H]3C[C@@H](COS(N)(=O)=O)[C@@H](O)C3)c2n1` [Compound I-08, {(1S,2S,4R)-2-hydroxy-4-[4-(1H-indol-2-yl)-2-methyl-7H-pyrrolo[2,3-d]pyrimidin-7-yl]cyclopentyl}methyl sulfamate HCl], for which the IC50 was no more than 0.05 µM and the inhibition at 0.123 µM stood at 74%.

Take `NS(=O)(=O)OC[C@@H]1C[C@@H](n2ccc3c(-c4cc5cc(F)c(Cl)cc5[nH]4)ncnc32)C[C@@H]1O` [Compound I-09, {(1S,2S,4R)-4-[4-(6-chloro-5-fluoro-1H-indol-2-yl)-7H-pyrrolo[2,3-d]pyrimidin-7-yl]-2-hydroxycyclopentyl}methyl sulfamate]: the IC50 lay within 0.05 to 2 µM and the inhibition at 0.123 µM was determined as 49%.

On to `COc1ccc2cc(-c3ncnc4c3ccn4[C@@H]3C[C@@H](COS(N)(=O)=O)[C@@H](O)C3)n(C(=O)OC(C)(C)C)c2c1` [Compound I-10, tert-butyl 2-(7-{(1R,3S,4S)-3-hydroxy-4-[(sulfamoyloxy)methyl]cyclopentyl}-7H-pyrrolo[2,3-d]pyrimidin-4-yl)-6-methoxy-1H-indole-1-carboxylate], for which the half-maximal inhibitory concentration (IC50) was in the range of 0.05 to 2 µM. Moreover, under “compound at 1.11 μM (footnote ‡)”, the inhibition at 1.11 µM worked out at 26%.

For the compound `NS(=O)(=O)OC[C@@H]1C[C@@H](n2ccc3c(-c4cc5cc(F)ccc5[nH]4)ncnc32)C[C@@H]1O` [Compound I-11, {(1S,2S,4R)-4-[4-(5-fluoro-1H-indol-2-yl)-7H-pyrrolo[2,3-d]pyrimidin-7-yl]-2-hydroxycyclopentyl}methyl sulfamate], the IC50 lay within 0.05 to 2 µM and the inhibition at 0.123 µM came to 61%.

In the case of `COc1cccc2cc(-c3ncnc4c3ccn4[C@@H]3C[C@@H](COS(N)(=O)=O)[C@@H](O)C3)[nH]c12` [Compound I-12, {(1S,2S,4R)-2-hydroxy-4-[4-(7-methoxy-1H-indol-2-yl)-7H-pyrrolo[2,3-d]pyrimidin-7-yl]cyclopentyl}methyl sulfamate], the IC50 was 0.05 to 2 µM and the inhibition at 0.123 µM turned out to be 12%.

As for `Cc1c(-c2ncnc3c2ccn3[C@@H]2C[C@@H](COS(N)(=O)=O)[C@@H](O)C2)[nH]c2ccccc12` [Compound I-13, {(1S,2S,4R)-2-hydroxy-4-[4-(3-methyl-1H-indol-2-yl)-7H-pyrrolo[2,3-d]pyrimidin-7-yl]cyclopentyl}methyl sulfamate], the IC50 was in the range of 0.05 to 2 µM and the inhibition at 0.123 µM came out at 16%.

`NS(=O)(=O)OC[C@@H]1C[C@@H](n2ccc3c(-c4cc5ccc(C(F)(F)F)cc5[nH]4)ncnc32)C[C@@H]1O` [Compound I-14, [(1S,2S,4R)-2-hydroxy-4-{4-[6-(trifluoromethyl)-1H-indol-2-yl]-7H-pyrrolo[2,3-d]pyrimidin-7-yl}cyclopentyl]methyl sulfamate]: the IC50 was in the range of 0.05 to 2 µM and the inhibition at 0.123 µM is 32%.
